# Assay results published in patent US20050069544A1, “Pharmaceutical composition and a method of treatment” (priority 1998, published 2005).
# “Also recorded” adds a separate entry of the source.
# What was measured:
# [1] = system: PBMC from RhD alloimmunised donors; assay: Cell proliferation assay (3H-thymidine) of PBMC from RhD alloimmunised donors stimulated with RhD peptides; format: cell-based, human; conditions: peptide 20 μg/ml, 5 days
# Procedure: Five complete panels of 68 15-mer peptides, with 5 or 10 amino acid overlaps, were synthesized (Multiple Peptide Service, Cambridge Research Biochemicals, Cheshire, UK and Dept. Of Biochemistry, University of Bristol, UK), corresponding to the sequences of the 30 kD Rh proteins associated with expression of the RhD or RhcE/ce/Ce/CE blood group antigens respectively (Tables 1 to 5). An additional three peptide sequences is added to the panel of RhD peptides to account for the Ile to Met substitution described earlier (numbered from 69 to 71). The amino acid sequences for each of these proteins were deduced from cDNA analyses (FIG. 1). In order to ensure purity, each panel was synthesized by fluorenylmethoxycarbonyl chemistry on resin using a base-labile linker, rather than by conventional pin technology, and randomly selected peptides were screened for purity by HPLC and amino acid analysis.
# Peripheral blood mononuclear cells (PBMC) from donors or patients were separated from fresh blood samples using Ficoll-Hypaque. The donors and patients had become alloimmunised with RhD-positive blood either through pregnancy, a blood transfusion or through immunization with the relevant blood.
# PBMC were cultured in 100 μl volumes in microtitre plates at a concentration of 1.25×10^6 cells/ml in an Alpha Modification of Eagle's Medium (ICN Flow, Bucks UK) supplemented with 5% autologous serum, 4 mM L-Glutamine (Gibco, Paisley, UK), 100 U/ml sodium benzylpenicillin G (Sigma), 100 μg/ml streptomycin sulphate (Sigma), 5×10^−5M 2-mercaptoethanol (Sigma) and 20 mM HEPES pH7,2 (Sigma). All plates were incubated at 37° C. in a humidified atmosphere of 5% CO2/95% air. The cell proliferation in cultures was estimated from the incorporation of ^3H-Thymidine in triplicate wells 5 days after stimulation with antigen as described previously. Proliferation results are presented either as the mean CPM+/−SD of the triplicate samples, or as a stimulation index (SI), expressing the ratio of mean CPM in stimulated versus unstimulated control cultures. An S1>3 with CPM>1000 is interpreted as representing a positive response.
# HLA-DR15 transgenic mice = assay: Tolerisation in vivo to RhD protein in HLA-DR15 transgenic mice
# Procedure: HLA-DR15 transgenic mice were immunised twice with 2 mg/ml purified RhD protein. The first subcutaneous injection was followed 14 days later by an intraperitoneal injection. Mice were sacrificed 14 days after the final injection. The spleen was removed and blood collected by cardiac puncture.
# Fourteen days before RhD immunisation (as above) 25 μl of 2 mg/ml soluble RhD peptides were administered by the intranasal route.
# Fourteen days before RhD immunisation (as above) 25 μl of 2 mg/ml soluble RhD peptides were administered by the subcutaneous route.
# Splenocytes were homogenised and a single cell suspension was isolated over 40 μm mesh filters (Becton Dickinson) and resuspended to 1.25×10^6 cells/ml in the Alpha Modification of Eagle's Medium (ICN Flow, Bucks UK) supplemented with 5% autologous serum, 4 mM L-Glutamine (Gibco, Paisley, UK), 100 U/ml sodium benzylpenicillin G (Sigma), 100 μg/ml streptomycin sulphate (Sigma), 5×10^−5 2-mercaptoethanol (Sigma) and 20 mM HEPES pH7.2 (Sigma). All plates were incubated at 37° C. in a humidified atmosphere of 5% CO2/95% air. The cell proliferation in cultures was estimated from the incorporation of ^3H-thymidine (Amersham) in triplicate wells 5 days after stimulation with antigen. Proliferation results are presented either as the mean CPM±SD of the triplicate samples, or as a stimulation index (SI) expressing the ratio of mean CPM in stimulated versus unstimulated control cultures. An SI>3 with CPM>500 is interpreted as representing a positive response.
# Round bottomed microtitre plates (Nunc, Roskilde, Denmark) were blocked in phosphate buffered saline pH 7.4 (PBS) containing 0.2% bovine serum albumin (BSA), before addition of 50 μl 2% v/v washed human D-positive RBC. Test sera were incubated at 50 μl per well with triplicate RBC samples for 1 hour at 37° C. and washed three times in PBS-BSA before fixing for 30 minutes in 0.15% glutaraldehyde (Sigma, Dorset, UK) to prevent lysis of the cells in the alkaline conditions required later in the test. The fixed RBC were transferred to fresh, pre-blocked, 96-well plates and washed before incubation with 50 μl per well 1 μg/ml goat anti-mouse IgG γ-chain specific antibody (Sigma) or goat anti-mouse IgM μ-chain specific antibody (Sigma) for 1 hour at 37° C. After washing, the plates were incubated with 50 μl per well 1 μg/ml rabbit anti-goat IgG alkaline phosphatase (Sigma) for 1 hour at 37° C., washed, and 100 μl of phosphatase substrate solution was then incubated in each well for 1 hour at 37° C. After pelleting of the RBC by centrifugation, 50 μl of each supernatant was transferred into the wells of fresh, flat-bottomed microtitre plates (Nunc) and the absorbance measured at 405 nm, with 492 nm as a reference, using a multiscan plate reader (Labsystems, Basingstoke, UK). Each result is expressed as the mean of triplicate wells. Inter-assay variation was controlled for by including previously tested RBC samples on each plate.
# It is known from other animal models (Elson C J & Barker R N. Helper T-cells in antibody mediated, organ specific autoimmunity. Curr Opin Immunol, 2000; 12:664-669) that mucosal administration of immunodominant peptides which induce an immune response when given with adjuvant by the parenteral route will inhibit responsiveness, and induce antigen specific tolerance. To test the effectiveness of peptides containing immunodominant allo-RhD helper epitopes in preventing antibody response to the RhD protein, HLA-DR15 transgenic mice were used for the in vivo testing of these peptides as most alloimmunised donors responding to RhD bear this MHC class II allele.
# [2] = system: CD3+ CD4+ T-cells of RhD-alloimmunised donors; assay: Three colour flow cytometry of CD3, CD4 and intracellular IFN-γ or IL-10 in PBMC from RhD-alloimmunised donors; format: cell-based, human; conditions: CD3+ gated, representative alloimmune donor, 5 days; for proportion of CD4+ IL-10+ T-cells: unstimulated cultures 2.4%; for proportion of CD4+ IFN-γ+ T-cells: unstimulated cultures 4.2%
# Procedure: (§1) The secretion of cytokines identified in Example 1.3 by T-helper cells is confirmed by flow cytometery analysis. Simultaneous measurement of surface molecules CD3 and CD4 and intracellular cytokines IFN-γ or IL-10 was carried out using three colour flow cytometry analysis in PBMC, isolated from RhD-alloimmunised donors, cultured with either no antigen or RhD peptide for five days after stimulation. All analysis was carried out using Expo v2 analysis software (applied Cytometry Systems). The CD3+ T-cells were gated open and the numbers of IFN-γ+ and CD4+ cells were assessed. In all donors tested there was a significant increase in the proportion of CD4+ IFN-γ+CD3+ T-cells to at least one of the RhD peptides tested. In the representative example shown in FIGS. 12A to 12L it can be seen that the proportion of CD4+ IFN-γ+cells was 4.2% in unstimulated cultures (FIG. 12E). […] The IL-10 and CD4+ expression was also assessed on CD3+ gated population of T-cells. In PBMC cultures isolated from the alloimmune donor shown, there was an increase in the proportion of CD4+ IL-10+T-cells from 2.4% in unstimulated PBMC cultures (FIG. 12I) to 6.5% in culture stimulated with RhD peptide 13 (FIG. 12J) to 6.2% in cultures stimulated with RhD peptide 17 (FIG. 12K) and 5.9% with RhD peptide 28 (FIG. 12L).
# [3] = system: CD3+ CD4+ T-helper cells of AIHA patients; assay: Flow cytometry of CD3, CD4 and intracellular cytokines in PBMC from AIHA patients; format: cell-based, human; conditions: AIHA patient; for CD3+ CD4+ population of T-helper cells: FIGS. 23A to 23D; for CD4+ T-helper cells expressing intracellular IFN-γ: FIGS. 23E to 23H
# Procedure: as §1
# The secretion of cytokines identified in Example 2.3 by T-cells is confirmed utilising the experiments mentioned in Example 1.4, which were repeated using PBMC isolated from patients with AIHA.
# [4] = system: PBMC from RhD-alloimmunised donors; assay: celELISA of cytokine production (IL-10, TGF-β1) by PBMC from RhD alloimmunised donors; format: cell-based, human
# Procedure: Cultured T-cells are stimulated with each of the epitopes given in Table 1 and after 5 days the responding cells were transferred to flat-bottomed microtitre plates (96-well Nunc-Immuno Maxisorp) coated with […] per well of monoclonal anti-cytokine capture antibody diluted in 0.05M alkaline carbonate coating buffer pH 9.6. Unbound capture antibody was removed by two washes with HBSS and non-specific binding potential blocked by incubation with 200 μl per well of phosphate buffered saline, pH 7.4 (PBS containing 3% BSA).
# Five days after stimulation, lymphocyte cultures were mixed to resuspend the cells and duplicate 100 μl aliquots were transferred into wells coated with the respective capture antibody specific for IFN-γ, IL-10 or TGF-β. The plates coated with capture antibodies and layered by lymphocytes were then incubated for a further 24 hours at 37° C. in a humidified atmosphere of 5% CO2 and 95% air. After this incubation the PBMC were removed by four washes with 0.2% Tween/PBS. One hundred microlitre aliquots of the appropriate biotinylated monoclonal detection antibody in 0.2% BSA/PBS were then added to the wells and incubated at room temperature for 45 minutes.
# After six washes with 0.5% Tween/PBS, 100 μl of 1:100,000 ExtrAvidin-alkaline phosphatase conjugate (Sigma) was then added to each of the wells and incubated at room temperature for 30 minutes. The ExtrAvidin conjugate was removed by eight washes with 0.2% Tween/PBS, and the plates developed using 100 μl per well of p-nitrophenyl phosphate (Sigma) 1.0 mg/ml in 0.05M carbonate alkaline buffer pH9.6. The absorbance at 405 nm was then measured using a Multiscan plate reader (Labsystems Basingstoke UK).
# Cytokine secretion was measured by interpolation from a standard curve generated by incubating duplicate wells with doubling dilutions of recombinant human IFN-γ or IL-10 or TGF-β (Pharmingen). The standard curves were modelled by a smoothed cubic spline function applied to the absorbance reading and the cytokine concentrations after a quasilogarithmic transformation, where: quasiloge(z)=loge[z+{square root}[z^2+1]).
# Using celELISA technique, the 68 RhD peptide panel was screened for the ability to induce IL-10 and TGF-β production for PBMC from a total of 19 samples from 12 different alloimmune donors. PMBC from 10 out of the 12 RhD-alloimmunised donors could produce IL-10 to at least one of the RhD peptides on at least one occasion, with a total of 194 significant IL-10 responses to the RhD peptides between all the donors. The RhD peptides that induced significant TGF-β or IL-10 and proliferative responses from PBMC in all the samples screened are summarised in FIGS. 10 and 11.
# [5] = peptide intranasal 14 days before RhD immunisation
# [6] = nasal administration of peptide prior to RhD immunisation
# [7] = peptide parenteral (subcutaneous) before RhD immunisation
sequence,measurement,setting,value
AYFGLSVAWCLPKPL (Residue 177-191 RhD; listed as Homo sapiens) [peptide 28],proliferative T-cell response to RhD peptides,[1],most commonly targeted
same,RhD-specific proliferation by splenocytes after prior tolerisation,HLA-DR15 transgenic mice; [5],reduction in the RhD-specific proliferation
same,proportion of CD4+ IL-10+ T-cells,[2],5.9%
same,proportion of CD4+ IFN-γ+ T-cells,[2],10.2%
FLSQFPSGKVVITLF (Residue 97-111 RhD; listed as Homo sapiens) [peptide 13],proliferative T-cell response to RhD peptides,[1],most commonly targeted
same,RhD-specific proliferation by splenocytes after prior tolerisation,HLA-DR15 transgenic mice; [5],reduction in the RhD-specific proliferation
same,proportion of CD4+ IL-10+ T-cells,[2],6.5%
GALFLWMFWPSFNSA (Residue 212-226 RhD; listed as Homo sapiens) [compound 35],CD3+ CD4+ population of T-helper cells,[3],expansion of a CD3+ CD4+population of T-helper cells
same,CD4+ T-helper cells expressing intracellular IFN-γ,[3],expansion of CD4+ T-helper cells that express intracellular IFN-γ
QDLTVMAAIGLGFLT (Residue 52-66 RhD; listed as Homo sapiens) [peptide 6],IL-10 production by PBMC,[4]; FIG. 3 and FIG. 10,commonly induce the production of IL-10; also recorded: induce IL-10 production in the absence of a proliferative response or the production of IFN-γ or IL-4
same,proliferative T-cell response to RhD peptides,[1],most commonly targeted
same,RhD-specific proliferation by splenocytes after prior tolerisation,HLA-DR15 transgenic mice; [5],reduction in the RhD-specific proliferation
same,RhD-specific proliferation by splenocytes after prior tolerisation,"HLA-DR15 transgenic mice; peptide intranasal 14 days before RhD immunisation, listed as p6",reduced T-cell response to RhD protein
same,"serum anti-human RBC antibody, rr red blood cells",HLA-DR15 transgenic mice; peptide intranasal before RhD immunisation,reduction of anti-human RBC antibody
SIRLATMSALSVLIS (Residue 112-126 RhD; listed as Homo sapiens) [peptide 16],TGF-β1 production by PBMC,[4]; FIG. 3 and FIG. 11,commonly induce the production of TGF-β1
same,proliferative T-cell response to RhD peptides,[1],most commonly targeted
same,IL-10 production by draining lymph node cells,HLA-DR15 transgenic mice; [6],increase
same,TGF-β1 production by draining lymph node cells,HLA-DR15 transgenic mice; [6],increase
TMSALSVLISVDAVL (Residue 117-131 RhD; listed as Homo sapiens) [peptide 17],proliferative T-cell response to RhD peptides,[1],most commonly targeted; also recorded: induces significant PBMC proliferation
same,percentage of donors in whom a proliferative response was elicited,"[1]; SI>3 with CPM>1000 positive, FIG. 6",70%
same,RhD-specific proliferation by splenocytes after prior tolerisation,HLA-DR15 transgenic mice; [5],reduction in the RhD-specific proliferation
same,proportion of CD4+ IL-10+ T-cells,[2],6.2%
same,proportion of CD4+ IFN-γ+ T-cells,[2],20.3%
VGAGNGMIGFQVLLS (Residue 352-366 RhD; listed as Homo sapiens) [compound 60],RhD-specific proliferation by splenocytes after prior tolerisation,HLA-DR15 transgenic mice; [7],reduced T-cell response to RhD protein
same,"serum anti-human RBC antibody, rr red blood cells",HLA-DR15 transgenic mice; [7],no change
same,CD3+ CD4+ population of T-helper cells,[3],expansion of a CD3+ CD4+population of T-helper cells
same,CD4+ T-helper cells expressing intracellular IFN-γ,[3],expansion of CD4+ T-helper cells that express intracellular IFN-γ
